The source of these data is patent publication US10676721B2, “Bacteriophages expressing antimicrobial peptides and uses thereof” (priority 2009, dated 2020).

The nature of data set [1]: Toxicity of AMPs (Table 3, method not described). Also on record: unit not given here. The note with it: two values per AMP.
Data set [2] deals with Staph aureus. Briefly: Staph aureus growth in sterile media isolated 6 hours after M13 infection of EMG2 (FIG. 30). Format: cell-based, Staphylococcus aureus. The note with it: no phage control 1.6. As for the experimental part: The inventors isolated the media in which the antimicrobial agents were released. The inventors next infected a growing mid-log culture of EMG2 with the different wild-type and engineered M13 phage. At 6 hours post infection, the EMG2 cells were centrifuged at 13,000 g and filtered through a 0.2 um membrane to collect sterile media with the released AmP and enzyme. The media was replenished in nutrients by adding 5× concentrated LB solution. Mid-log Staph bacteria where then inoculated in the media at a concentration of 10^5 CFU/ml.
For example, the “no phage” or the “m13 mp 18” staph culture reach an OD of 0.8 within 4 hours whereas the “M13.pTRC.Omp.PonW3” media containing PonW3 (SEQ ID NO: 40) causes a growth delay by another 4 hours, the culture reaches the same OD of 0.8 only after 8 hours of growth. Finally, release of CHAP165 in the surrounding media due to phage reengineering limited staph growth to an OD level of 0.8 while compared to 1.6 for the no phage control and 1.2 for the wild M13mp18.

The subject of data set [3] is antibiotic-resistant staphylococci. Conditions: cited from earlier work.
Data set [4] deals with Staphylococcus aureus. Briefly: Co-culture of E. coli with Staphylococcus aureus. Format: cell-based.
The test system of data set [5] is S. aureus. The note with it: CHAP165, from ROSS 2009; cited from earlier work.
Data set [6] has as its system E. coli strain that expresses capsular polysaccharide K. The data set is described as follows: Mixed culture of E. coli host strain and E. coli strain expressing capsular polysaccharide K. The data set is classed as cell-based, Escherichia coli. From the text:
The expression of the genomic payload of lytic peptides and proteins increases the utility of the engineered bacteriophage to treat heterologous infections.

Peptide text beside a SMILES is read from it.

`CC(C)C[C@H](NC(=O)[C@H](CC(C)C)NC(=O)[C@H](Cc1ccccc1)NC(=O)[C@H](CC(C)C)NC(=O)[C@H](CC(C)C)NC(=O)[C@@H](N)CC(C)C)C(=O)N[C@@H](CCCCN)C(=O)N[C@@H](CCCCN)C(=O)N[C@@H](CCCNC(=N)N)C(=O)N[C@@H](CCCCN)C(=O)N[C@@H](CCCCN)C(=O)N[C@@H](CCCNC(=N)N)C(=O)N[C@@H](CCCCN)C(=O)N[C@@H](Cc1ccc(O)cc1)C(=O)O` [J589_D1] (H-LLLFLLKKRKKRKY-OH): the Toxicity in data set [1] stood at 512.

Regarding `CC[C@H](C)[C@H](NC(=O)CNC(=O)[C@H](CCCNC(=N)N)NC(=O)[C@H](Cc1ccccc1)NC(=O)[C@@H](NC(=O)[C@H](Cc1c[nH]cn1)NC(=O)[C@H](Cc1c[nH]cn1)NC(=O)[C@H](Cc1ccccc1)NC(=O)[C@@H](N)Cc1ccccc1)[C@@H](C)CC)C(=O)N[C@H](C(=O)N[C@@H](Cc1c[nH]cn1)C(=O)N[C@H](C(=O)NCC(=O)N[C@@H](CCCCN)C(=O)N[C@H](C(=O)N[C@H](C(=O)N[C@@H](Cc1c[nH]cn1)C(=O)N[C@@H](CCCCN)C(=O)N[C@@H](CC(C)C)C(=O)N[C@H](C(=O)N[C@H](C(=O)NCC(=O)O)[C@@H](C)O)C(C)C)[C@@H](C)CC)[C@@H](C)O)C(C)C)C(C)C` [J589_H3] (H-FFHHIFRGIVHVGKTIHKLVTG-OH), the Toxicity in data set [1] is 128.

`CC[C@H](C)[C@H](NC(=O)[C@H](CCCCN)NC(=O)[C@H](CC(C)C)NC(=O)[C@H](C)NC(=O)[C@H](CO)NC(=O)CNC(=O)[C@H](CC(C)C)NC(=O)[C@@H](N)Cc1c[nH]c2ccccc12)C(=O)NCC(=O)N[C@@H](C)C(=O)N[C@@H](CCCCN)C(=O)N[C@@H](CC(C)C)C(=O)N[C@@H](CC(C)C)C(=O)N1CCC[C@H]1C(=O)N[C@@H](CO)C(=O)N[C@H](C(=O)N[C@H](C(=O)NCC(=O)N[C@@H](CC(C)C)C(=O)N[C@@H](Cc1ccccc1)C(=O)N[C@@H](CCC(N)=O)C(=O)N[C@@H](CCCCN)C(=O)N[C@@H](CCCCN)C(=O)N[C@@H](CCCCN)C(=O)N[C@@H](CCCCN)C(=O)O)C(C)C)C(C)C` [J589_J5] (H-WLGSALKIGAKLLPSVVGLFQKKKK-OH) yielded a Toxicity in data set [1] of 32.

Molecule `CC[C@H](C)[C@H](NC(=O)[C@H](C)NC(=O)[C@H](CCCCN)NC(=O)CNC(=O)[C@H](C)NC(=O)[C@H](Cc1c[nH]cn1)NC(=O)[C@@H](NC(=O)[C@H](C)NC(=O)CNC(=O)[C@H](CCCCN)NC(=O)[C@@H](NC(=O)[C@H](CC(C)C)NC(=O)[C@H](Cc1c[nH]c2ccccc12)NC(=O)CNC(=O)[C@H](Cc1ccccc1)NC(=O)[C@@H](N)Cc1ccccc1)[C@@H](C)CC)[C@@H](C)CC)C(=O)N[C@@H](Cc1c[nH]cn1)C(=O)NCC(=O)N[C@@H](CC(C)C)C(=O)N[C@H](C(=O)N[C@@H](Cc1c[nH]cn1)C(=O)N[C@@H](CCCNC(=N)N)C(=O)N[C@@H](CCCNC(=N)N)C(=O)N[C@@H](CCCNC(=N)N)C(=O)N[C@@H](Cc1c[nH]cn1)C(=O)O)[C@@H](C)CC` [J589_J6] (H-FFGWLIKGAIHAGKAIHGLIHRRRH-OH) showed a Toxicity in data set [1] of 16.

`CC[C@H](C)[C@H](NC(=O)CN)C(=O)N[C@@H](Cc1c[nH]c2ccccc12)C(=O)NCC(=O)N[C@H](C(=O)N[C@@H](CC(C)C)C(=O)N[C@@H](C)C(=O)N[C@@H](CCCCN)C(=O)N[C@H](C(=O)NCC(=O)N[C@H](C(=O)N[C@@H](CCCCN)C(=O)N[C@@H](C)C(=O)N[C@H](C(=O)N1CCC[C@H]1C(=O)N[C@@H](CCCNC(=N)N)C(=O)N[C@H](C(=O)N[C@H](C(=O)N[C@@H](CO)C(=O)N[C@@H](CCSC)C(=O)N[C@@H](CC(C)C)C(=O)N[C@@H](CCCCN)C(=O)N[C@@H](CCCCN)C(=O)N[C@@H](CCCCN)C(=O)N[C@@H](CCCCN)C(=O)N[C@@H](CCC(N)=O)C(=O)O)[C@@H](C)CC)C(C)C)C(C)C)[C@@H](C)CC)[C@@H](C)CC)[C@@H](C)O` [J589_K4, Ponericin W3] (H-GIWGTLAKIGIKAVPRVISMLKKKKQ-OH): the Toxicity in data set [1] was determined as 64.

Take `CC[C@H](C)[C@H](NC(=O)[C@H](CCCCN)NC(=O)[C@H](CCCCN)NC(=O)[C@H](Cc1ccccc1)NC(=O)[C@H](CC(C)C)NC(=O)[C@H](CCCCN)NC(=O)[C@H](Cc1c[nH]c2ccccc12)NC(=O)[C@@H](N)CCCCN)C(=O)N[C@@H](CC(C)C)C(=O)N[C@@H](CCCCN)C(=O)N[C@@H](Cc1ccccc1)C(=O)N[C@@H](CC(C)C)C(=O)N[C@@H](Cc1c[nH]cn1)C(=O)N[C@@H](CC(C)C)C(=O)N[C@@H](C)C(=O)N[C@@H](CCCCN)C(=O)N[C@@H](CCCCN)C(=O)N[C@@H](Cc1ccccc1)C(=O)O` [J6084_F10] (H-KWKLFKKILKFLHLAKKF-OH): in data set [1], the Toxicity came out at 32.

For `CC[C@H](C)[C@H](NC(=O)[C@H](CC(C)C)NC(=O)[C@H](C)NC(=O)CNC(=O)[C@H](Cc1c[nH]c2ccccc12)NC(=O)[C@@H](N)Cc1ccccc1)C(=O)N[C@@H](CCCCN)C(=O)NCC(=O)N[C@@H](C)C(=O)N[C@@H](C)C(=O)N[C@@H](CCCCN)C(=O)N[C@@H](CC(C)C)C(=O)N[C@H](C(=O)N1CCC[C@H]1C(=O)N[C@@H](CO)C(=O)N[C@H](C(=O)N[C@H](C(=O)NCC(=O)N[C@@H](CC(C)C)C(=O)N[C@@H](Cc1ccccc1)C(=O)N[C@@H](CCCCN)C(=O)N[C@@H](CCCCN)C(=O)N[C@@H](CCCCN)C(=O)N[C@@H](CCC(N)=O)C(=O)O)C(C)C)C(C)C)[C@@H](C)CC` [J6084_H2, Ponericin W5] (H-FWGALIKGAAKLIPSVVGLFKKKQ-OH), the Toxicity in data set [1] turned out to be 32.

`CC[C@H](C)[C@H](NC(=O)[C@H](C)NC(=O)[C@@H]1CCCN1C(=O)CNC(=O)[C@H](C)NC(=O)[C@H](CCCCN)NC(=O)[C@@H](NC(=O)[C@H](CC(C)C)NC(=O)CNC(=O)[C@H](CC(=O)O)NC(=O)[C@H](CCCNC(=N)N)NC(=O)[C@@H](NC(=O)[C@H](CC(N)=O)NC(=O)[C@H](CCC(N)=O)NC(=O)CNC(=O)[C@@H](NC(=O)[C@H](CCCNC(=N)N)NC(=O)[C@H](CCC(=O)O)NC(=O)[C@@H](NC(=O)[C@H](CCCCN)NC(=O)[C@H](CCCCN)NC(=O)[C@H](Cc1ccccc1)NC(=O)[C@H](Cc1ccccc1)NC(=O)[C@H](CCCCN)NC(=O)[C@H](Cc1c[nH]c2ccccc12)NC(=O)[C@@H](N)CCCNC(=N)N)[C@@H](C)CC)C(C)C)C(C)C)[C@@H](C)CC)C(=O)N[C@@H](CCC(N)=O)C(=O)N[C@H](C(=O)N[C@@H](CC(C)C)C(=O)NCC(=O)N[C@@H](C)C(=O)N[C@@H](C)C(=O)N[C@@H](CCCCN)C(=O)N[C@@H](C)C(=O)N[C@@H](CC(C)C)C(=O)O)C(C)C` [J6090_C11] (H-RWKFFKKIERVGQNVRDGLIKAGPAIQVLGAAKAL-OH) yielded a Toxicity in data set [1] of 256.

In data set [1], `CC[C@H](C)[C@H](NC(=O)[C@H](CCCCN)NC(=O)[C@H](CC(C)C)NC(=O)[C@H](C)NC(=O)[C@H](CO)NC(=O)CNC(=O)[C@H](CC(C)C)NC(=O)[C@@H](N)Cc1c[nH]c2ccccc12)C(=O)NCC(=O)N[C@@H](C)C(=O)N[C@@H](CCCCN)C(=O)N[C@@H](CC(C)C)C(=O)N[C@@H](CC(C)C)C(=O)N1CCC[C@H]1C(=O)N[C@@H](CO)C(=O)N[C@H](C(=O)N[C@H](C(=O)NCC(=O)N[C@@H](CC(C)C)C(=O)N[C@@H](Cc1ccccc1)C(=O)N[C@@H](CCCCN)C(=O)N[C@@H](CCCCN)C(=O)N[C@@H](CCCCN)C(=O)N[C@@H](CCCCN)C(=O)N[C@@H](CCC(N)=O)C(=O)O)C(C)C)C(C)C` [J6123_D7, Ponericin W1] (H-WLGSALKIGAKLLPSVVGLFKKKKQ-OH) displayed a Toxicity of 64.

B1: CHAP165 (protein)
chain: AKTQAEINKRLDAYAKGTVDSPYRVKKATSYDPSFGVMEAGAIDADGYYHAQCQDLITDYVLWLTDNKVRTWGNAKDQIKQSYGTGFKIHENKPSTVPKKGWIAVFTSGSYEQWGHIGIVYDGGNTSTFTILEQNWNGYANKKPTKRVDNYYGLTHFIEIPVKA
B1: the “OD level to which staph growth is limited” value in data set [2] was 0.8. For the same molecule, in data set [3], the “lytic activity compared with the natural LysK enzyme” value is “twice stronger lytic activity”. In addition, the “lysis of the staphylococcal population” value in data set [4] is “able to complete lyse”. Further, the “MIC SA” value in data set [5] was about 0.3 µg/mL. Further, the “sterilization of the heterogeneous E. coli culture” value in data set [6] is “sterilize the heterogeneous E. coli culture completely”. Besides, the “lysis of the E. coli strain that expresses capsular polysaccharide K” value in data set [6] (lysK165 expressed from engineered bacteriophage) was “able to lyse”.
